In patent publication US20240228469A1, “PCSK9 INHIBITORS AND METHODS OF USE THEREOF” (AstraZeneca AB, priority 2022, published 2024):

What was measured:
PCSK9 [1] = target: T1, PCSK9 (Homo sapiens, UniProt Q8NBP7, G670E/V474I); test: biochemical
PCSK9 [2] = target: T1, PCSK9; test: Assay 3 PCSK9 LDL-C uptake assay in HepG2 cells; format: cell-based; set-up: TEV site (C); His6 (C); host or cells: added to HepG2 (ATCC #HB-8065); settings: 125 nM PCSK9, pHrodo Red-LDL, read-out: Assay 3 LDL uptake potency
Summary of the method: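 HepG2 cells were plated for 24 h, then exposed for 24 h at 37 °C to compounds (half-log series, 10 μM top) with 125 nM exogenous PCSK9. pHrodo Red-LDL ([…]) uptake was then imaged by fluorescence at 4 h and 24 h. Signal was normalized as % effect between DMSO and 100 nM evolocumab, with a four-parameter logistic fit.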

[3] = target: T2, potassium ion channel hERG (Homo sapiens, UniProt Q12809); test: Assay 5 hERG assay (patch clamp, CHO cells over-expressing hERG); format: cell-based; settings: SyncroPatch 384PE, room temperature, geometric mean, read-out: Assay 5 (hERG Hu CHO if EPh CR-Syncro) GMean IC50
T2 construct: expressed in transfected cells; host or cells: Chinese hamster ovary K1 (CHO)
Summary of the method: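 hERG currents recorded by automated patch clamp at room temperature in CHO-K1 cells, 6-point cumulative concentrations. SyncroPatch runs used KF-based internal (pH 7.2) and NMDG-containing external solution (pH 7.4), 0.33% DMSO; QPatchII runs used 2% or 0.4% DMSO. Only wells meeting seal-resistance and current-size criteria kept.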

T1 sequence (Q8NBP7 with tags, fused parts or gaps V474I/G670E): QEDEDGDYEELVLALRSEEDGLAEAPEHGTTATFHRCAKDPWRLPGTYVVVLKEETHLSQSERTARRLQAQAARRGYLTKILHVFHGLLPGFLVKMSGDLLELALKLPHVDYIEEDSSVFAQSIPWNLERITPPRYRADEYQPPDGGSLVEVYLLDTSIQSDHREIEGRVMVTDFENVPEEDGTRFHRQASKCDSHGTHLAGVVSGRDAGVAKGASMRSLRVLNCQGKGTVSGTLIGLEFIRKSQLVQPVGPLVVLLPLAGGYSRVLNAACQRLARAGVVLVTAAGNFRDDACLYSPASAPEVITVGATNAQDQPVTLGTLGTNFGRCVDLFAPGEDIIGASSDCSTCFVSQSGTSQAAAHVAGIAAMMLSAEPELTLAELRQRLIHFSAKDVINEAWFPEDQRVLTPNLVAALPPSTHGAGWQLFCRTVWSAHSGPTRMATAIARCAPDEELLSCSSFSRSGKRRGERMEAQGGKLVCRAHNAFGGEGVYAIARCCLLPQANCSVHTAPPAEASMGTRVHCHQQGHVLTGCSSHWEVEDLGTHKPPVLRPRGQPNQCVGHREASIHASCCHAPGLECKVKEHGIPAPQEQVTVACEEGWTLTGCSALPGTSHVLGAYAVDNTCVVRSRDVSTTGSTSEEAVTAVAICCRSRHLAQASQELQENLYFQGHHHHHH
T2 sequence (Q12809 whole entry): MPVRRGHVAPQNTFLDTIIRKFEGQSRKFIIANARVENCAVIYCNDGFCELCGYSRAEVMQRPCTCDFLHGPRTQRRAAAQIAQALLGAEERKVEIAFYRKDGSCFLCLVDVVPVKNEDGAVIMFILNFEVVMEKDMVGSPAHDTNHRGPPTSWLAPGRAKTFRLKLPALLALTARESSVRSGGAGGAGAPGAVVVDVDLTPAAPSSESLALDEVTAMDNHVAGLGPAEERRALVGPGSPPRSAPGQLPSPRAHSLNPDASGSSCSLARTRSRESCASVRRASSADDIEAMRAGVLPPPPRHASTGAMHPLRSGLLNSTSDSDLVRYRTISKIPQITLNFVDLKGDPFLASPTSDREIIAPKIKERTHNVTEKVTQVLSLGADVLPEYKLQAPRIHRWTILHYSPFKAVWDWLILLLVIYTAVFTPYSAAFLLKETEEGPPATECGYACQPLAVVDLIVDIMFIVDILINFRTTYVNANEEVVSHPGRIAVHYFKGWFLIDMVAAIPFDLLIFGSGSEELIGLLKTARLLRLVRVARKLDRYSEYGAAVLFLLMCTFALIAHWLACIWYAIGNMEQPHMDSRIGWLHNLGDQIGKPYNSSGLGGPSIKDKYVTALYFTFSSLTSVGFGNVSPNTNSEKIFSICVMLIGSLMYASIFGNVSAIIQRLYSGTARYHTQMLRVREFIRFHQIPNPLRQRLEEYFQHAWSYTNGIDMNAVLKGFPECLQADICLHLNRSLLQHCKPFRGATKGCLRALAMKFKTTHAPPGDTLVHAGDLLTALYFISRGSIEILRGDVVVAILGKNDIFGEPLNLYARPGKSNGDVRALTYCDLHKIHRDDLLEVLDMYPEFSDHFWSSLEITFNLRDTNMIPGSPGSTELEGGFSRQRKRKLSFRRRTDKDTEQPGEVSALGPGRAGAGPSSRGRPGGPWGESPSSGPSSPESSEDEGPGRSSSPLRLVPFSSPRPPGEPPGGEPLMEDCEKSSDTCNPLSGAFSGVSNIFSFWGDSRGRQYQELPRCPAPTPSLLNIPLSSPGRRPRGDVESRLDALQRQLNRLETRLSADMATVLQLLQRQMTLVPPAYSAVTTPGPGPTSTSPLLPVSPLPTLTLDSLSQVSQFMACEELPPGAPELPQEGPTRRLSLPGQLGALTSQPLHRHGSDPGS

SMILES: COc1cccn(-c2ccc(N[C@H]3CC[C@H](Nc4ncc(C)nn4)C3)nc2)c1=O [Example 132, 3-Methoxy-6′-(((1S,3S)-3-((6-methyl-1,2,4-triazin-3-yl)amino)cyclopentyl)amino)-2H-[1,3′-bipyridin]-2-one]
- IC50 (PCSK9 [1]): 2.3 nM
- EC50 (PCSK9 [2]): 100 nM
- IC50 [3]: > 40000 nM

SMILES: COc1ccc(=O)n(-c2ccc(N[C@H]3CC[C@H](Nc4ncc(C)nn4)C3)nc2)c1 [Example 133, 5-Methoxy-6′-(((1S,3S)-3-((6-methyl-1,2,4-triazin-3-yl)amino)cyclopentyl)amino)-2H-[1,3′-bipyridin]-2-one]
- IC50 (PCSK9 [1]): 17 nM
- EC50 (PCSK9 [2]): 400 nM
- IC50 [3]: > 40000 nM

SMILES: Cc1cnc(N[C@H]2CC[C@H](Nc3ccc(-n4cc(Cl)ccc4=O)cn3)C2)nn1 [Example 134, 5-Chloro-6′-(((1S,3S)-3-((6-methyl-1,2,4-triazin-3-yl)amino)cyclopentyl)amino)-2H-[1,3′-bipyridin]-2-one]
- IC50 (PCSK9 [1]): 8.4 nM
- EC50 (PCSK9 [2]): 500 nM
- IC50 [3]: > 40000 nM

SMILES: Cc1cnc(N[C@H]2CC[C@H](Nc3ccc(-n4cccc(C(F)(F)F)c4=O)cn3)C2)nn1 [Example 135, 6′-(((1S,3S)-3-((6-Methyl-1,2,4-triazin-3-yl)amino)cyclopentyl)amino)-3-(trifluoromethyl)-2H-[1,3′-bipyridin]-2-one]
- IC50 (PCSK9 [1]): 2.8 nM
- EC50 (PCSK9 [2]): 100 nM
- IC50 [3]: > 40000 nM

SMILES: Cc1cnc(N[C@H]2CC[C@H](Nc3ccc(-n4cccc(OC(F)F)c4=O)cn3)C2)nn1 [Example 187, 3-(Difluoromethoxy)-6′-(((1S,3S)-3-((6-methyl-1,2,4-triazin-3-yl)amino)cyclopentyl)amino)-2H-[1,3′-bipyridin]-2-one]
- IC50 (PCSK9 [1]): 2.1 nM
- EC50 (PCSK9 [2]): 100 nM
- IC50 [3]: > 40100 nM

SMILES: Cc1cnc(N[C@H]2CC[C@H](Nc3ccc(-n4c(=O)ccc5cccnc54)cn3)C2)nn1 [Example 197, 1-(6-(((1S,3S)-3-((6-Methyl-1,2,4-triazin-3-yl)amino)cyclopentyl)amino)pyridin-3-yl)-1,8-naphthyridin-2(1H)-one]
- IC50 (PCSK9 [1]): 2.5 nM
- EC50 (PCSK9 [2]): 100 nM
- IC50 [3]: > 40100 nM

SMILES: Cc1cnc(N[C@H]2CC[C@H](Nc3ccc(-n4cccc(-c5cnn(C)c5)c4=O)cn3)C2)nn1 [Example 198, 6′-(((1S,3S)-3-((6-Methyl-1,2,4-triazin-3-yl)amino)cyclopentyl)amino)-3-(1-methyl-1H-pyrazol-4-yl)-2H-[1,3′-bipyridin]-2-one]
- IC50 (PCSK9 [1]): 2.9 nM
- EC50 (PCSK9 [2]): 100 nM
- IC50 [3]: > 40100 nM

SMILES: Cc1cnc(N[C@H]2CC[C@H](Nc3ccc(-n4c(=O)n(C)c5ccc(C#N)cc54)cn3)C2)nn1 [Example 210, 1-Methyl-3-(6-(((1S,3S)-3-((6-methyl-1,2,4-triazin-3-yl)amino)cyclopentyl)amino)pyridin-3-yl)-2-oxo-2,3-dihydro-1H-benzo[d]imidazole-5-carbonitrile]
- IC50 (PCSK9 [1]): 0.9 nM
- EC50 (PCSK9 [2]): 100 nM
- IC50 [3]: > 40100 nM

SMILES: Cc1cnc(N[C@H]2CC[C@H](Nc3ccc(-n4c(=O)n(C)c5cccnc54)cn3)C2)nn1 [Example 212, 1-Methyl-3-(6-(((1S,3S)-3-((6-methyl-1,2,4-triazin-3-yl)amino)cyclopentyl)amino)pyridin-3-yl)-1,3-dihydro-2H-imidazo[4,5-b]pyridin-2-one]
- IC50 (PCSK9 [1]): 1.8 nM
- EC50 (PCSK9 [2]): 100 nM
- IC50 [3]: > 40100 nM

SMILES: Cc1cnc(N[C@H]2CC[C@H](Nc3ccc(-n4nccc(Cl)c4=O)cn3)C2)nn1 [Example 221, 4-Chloro-2-(6-(((1S,3S)-3-((6-methyl-1,2,4-triazin-3-yl)amino)cyclopentyl)amino)pyridin-3-yl)pyridazin-3(2H)-one]
- IC50 (PCSK9 [1]): 1.6 nM
- EC50 (PCSK9 [2]): 300 nM
- IC50 [3]: > 40100 nM
